Columns and labels:
[1] = biological target: c-Jun N-terminal kinase, JNK (Homo sapiens) (UniProt P45983+P53779+P45984); assay: Induction of JNK phosphorylation in human HepG2 cells after 48 hrs by immunofluorescence staining-based high content screening assay; type: cell-based
HepG2 [2] = assay: Induction of apoptosis in human HepG2 cells assessed as decrease in nuclear volume after 48 hrs by Hoechst 33342 staining-based assay; type: functional, cell-based
HT-29 = assay: Antiproliferative activity against human HT-29 cells after 48 hrs by MTT assay; type: functional, cell-based; settings: HT-29, 48 h
HepG2 [3] = assay: Induction of apoptosis in human HepG2 cells assessed as early apoptotic cells at 2.5 uM after 48 hrs by Annexin V-FITC/propidium iodide staining-based flow cytometry (reference value: 1.30%); type: functional
HepG2 [4] = assay: Induction of apoptosis in human HepG2 cells assessed as late apoptotic cells at 5 uM after 48 hrs by Annexin V-FITC/propidium iodide staining-based flow cytometry (reference value: 0.95%); type: functional
HeLa = assay: Antiproliferative activity against human HeLa cells after 48 hrs by MTT assay; type: functional, cell-based
HepG2 [5] = assay: Induction of apoptosis in human HepG2 cells assessed as upregulation of active caspase 8 level after 48 hrs by immunofluorescence staining-based high content screening assay; type: functional, cell-based
Mus musculus = assay: Toxicity in Kunming mouse xenografted with […] H22 cells assessed as effect on lung weight index at 30 mg/kg, iv administered for 7 consecutive days; type: organism-based; settings: in vivo
HepG2 [6] = assay: Induction of apoptosis in human HepG2 cells assessed as early apoptotic cells at 7.5 uM after 8 hrs by Annexin V-FITC/propidium iodide staining-based flow cytometry (reference value: 1.29%); type: functional
HepG2 [7] = assay: Induction of apoptosis in human HepG2 cells assessed as early apoptotic cells at 7.5 uM after 36 hrs by Annexin V-FITC/propidium iodide staining-based flow cytometry (reference value: 2.08%); type: functional
HepG2 [8] = assay: Induction of apoptosis in human HepG2 cells assessed as viable cells at 2.5 uM after 24 hrs by Annexin V-FITC/propidium iodide staining-based flow cytometry (reference value: 96.97%); type: functional; settings: HepG2, 24 h, read-out: Activity
HepG2 [9] = assay: Induction of apoptosis in human HepG2 cells assessed as viable cells at 5 uM after 24 hrs by Annexin V-FITC/propidium iodide staining-based flow cytometry (reference value: 96.97%); type: functional; settings: HepG2, 24 h, read-out: Activity
HepG2 [10] = assay: Induction of apoptosis in human HepG2 cells assessed as late apoptotic cells at 2.5 uM after 48 hrs by Annexin V-FITC/propidium iodide staining-based flow cytometry (reference value: 0.95%); type: functional
HCT-116 = assay: Antiproliferative activity against human HCT116 cells after 48 hrs by MTT assay; type: functional, cell-based; settings: HCT-116, 48 h
HepG2 [11] = assay: Induction of apoptosis in human HepG2 cells assessed as viable cells at 2.5 uM after 48 hrs by Annexin V-FITC/propidium iodide staining-based flow cytometry (reference value: 96.67%); type: functional; settings: HepG2, 48 h, read-out: Activity
HepG2 [12] = assay: Induction of apoptosis in human HepG2 cells assessed as upregulation of active caspase 9 level after 48 hrs by immunofluorescence staining-based high content screening assay; type: functional, cell-based
HepG2 [13] = assay: Induction of apoptosis in human HepG2 cells assessed as increase in Bax protein expression after 48 hrs by immunofluorescence staining-based high content screening assay; type: functional, cell-based
HepG2 [14] = assay: Induction of apoptosis in human HepG2 cells assessed as increase in Bid expression levels after 48 hrs by immunofluorescence staining-based high content screening assay; type: functional, cell-based

COc1ccc2cc(-c3oc4c(CNCCCCN)cccc4c(=O)c3OC)ccc2c1Br.Cl.Cl
Activity [1]: Dose-dependent effect
Activity (HepG2 [2]): Dose-dependent effect
IC50 (HT-29): 14.7 µM
Activity (HepG2 [3]): 21.8%
Activity (HepG2 [4]): 9.87%
IC50 (HeLa): 5.9 µM
Activity (HepG2 [5]): Dose-dependent effect
Activity (Mus musculus): Non-Toxic
Activity (HepG2 [6]): 18.1%
Activity (HepG2 [7]): 28.78%
viability at 2.5 µM (HepG2 [8]): 88.7%
viability at 5 µM (HepG2 [9]): 82.2%
Activity (HepG2 [10]): 3.85%
IC50 (HCT-116): 15.1 µM
viability at 2.5 µM (HepG2 [11]): 74.1%
Activity (HepG2 [12]): Dose-dependent effect
Activity (HepG2 [13]): Dose-dependent effect
Activity (HepG2 [14]): Dose-dependent effect
